The structures appear in SMILES notation. Bounds are passed on as bounds.

In this assay the target is T1, Cdk2(2-298) (Homo sapiens, UniProt P24941).
T1 construct: Biotinylated N-terminal avi-tagged Cdk2(2-298) or Cdk1(1-297) was immobilized
Kind of assay: Surface Plasmon Resonance (SPR) compound interaction, Biacore 8K. In kind it is binding. The following applies: single-cycle kinetics (SCK, "S"), dissociation 1800 sec, read-out: Activity rating (KD). In outline: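 Biotinylated N-terminal avi-tagged Cdk2(2-298) captured on streptavidin chip at 2500–3000 RU in 25 mM HEPES, 150 mM NaCl, 0.05% Tween20, pH 7.5, 1% DMSO final. Eight 3-fold compound concentrations injected 120 sec at 30 μl/min, multi- or single-cycle kinetics; dissociation 180 sec (MCK) or 1800 sec (SCK).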
Turning to `O=S(=O)(Nc1ccc(Oc2ccccc2-c2ccnc(N[C@H]3CCCNC3)n2)c(F)c1)c1ccccc1` [Compound 2, N-[3-Fluoro-4-[2-[2-[[(3S)-3-piperidyl]amino]pyrimidin-4-yl]phenoxy]phenyl] benzenesulfonamide], the Kd (in general, the equilibrium constant for the complex coming apart) is 1000 to 5000 nM.

As to `N[C@H]1CC[C@H](Nc2nccc(-c3cncnc3Oc3ccc(NS(=O)(=O)c4ccccc4)cc3F)n2)CC1` [Compound 130, N-[4-[5-[2-[(1r,4r)(4-aminocyclohexyl)amino]pyrimidin-4-yl]pyrimidin-4-yl]oxy-3-fluoro-phenyl] benzenesulfonamide], the Kd lay in the range of 1000 to 5000 nM.

In the case of `N[C@H]1CC[C@H](Nc2nccc(-c3ncccc3Oc3ccc(NS(=O)(=O)c4ccccc4Cl)cc3F)n2)CC1` [Compound 132, N-[4-[[2-[2-(1r,4r)[(4-Aminocyclohexyl)amino]pyrimidin-4-yl]-3-pyridyl]oxy]-3-fluoro-phenyl] 2-chlorobenzenesulfonamide], the dissociation constant Kd fell in the range of 100 to 1000 nM.

For the compound `C=Cc1ccccc1S(=O)(=O)Nc1ccc(Oc2ccncc2-c2ccnc(N[C@H]3CC[C@H](N)CC3)n2)c(F)c1` [Compound 33, N-[4-[[3-[2-(1r,4r)[(4-Aminocyclohexyl)amino]pyrimidin-4-yl]-4-pyridyl]oxy]-3-fluoro-phenyl]-2-ethenylbenzenesulfonamide], the dissociation constant (Kd) is not above 10 nM.

For `CN1CC(Nc2nccc(-c3cnccc3Oc3ccc(NS(=O)(=O)c4ccccc4Cl)cc3F)n2)C1` [Compound 102], the equilibrium dissociation constant (Kd) was 11 to 100 nM.

In the case of `N[C@H]1CC[C@H](Nc2nccc(-c3cnccc3Oc3ccc(NS(=O)(=O)c4csc5ccccc45)cc3F)n2)CC1` [Compound 31, N-(4-((3-(2-((1r,4r)-4-aminocyclohexyl)amino)pyrimidin-4-yl)pyridin-4-yloxy)-3-fluorophenyl) benzo[b]thiophene-3-sulfonamide], the dissociation constant (Kd) lay in the range of 11 to 100 nM.

On to `N[C@H]1CC[C@H](Nc2nccc(-c3cnccc3Oc3ccc(NS(=O)(=O)c4ccc5c(c4)OCO5)cc3F)n2)CC1` [Compound 41, N-[4-[[3-[2-[(1r,4r)(4-aminocyclohexyl)amino]pyrimidin-4-yl]-4-pyridyl]oxy]-3-fluorophenyl]1,3-benzodioxol-5-ylsulfonamide], for which the Kd was 100 to 1000 nM.

With `CN1CCC(Nc2nccc(-c3cnccc3Oc3ccc(NS(=O)(=O)c4ccccc4Cl)cc3F)n2)CC1` [Compound 77, N-[3-Fluoro-4-[[3-[2-[[N-methylpiperid-4-yl]amino]pyrimidin-4-yl]-4-pyridyl]oxy]phenyl] 2-chlorobenzenesulfonamide], the Kd is 11 to 100 nM.

For the compound `N[C@H]1CC[C@H](Nc2nccc(-c3cnccc3Oc3ccc(NS(=O)(=O)c4ccccc4F)cc3F)n2)CC1` [Compound 64, N-[4-[[3-[2-[(1r,4r)(4-Aminocyclohexyl)amino]pyrimidin-4-yl]-4-pyridyl]oxy]-3-fluorophenyl] 2-fluorobenzenesulfonamide], the Kd was not above 10 nM.

As to `N[C@H]1CC[C@H](Nc2nccc(-c3cnccc3Oc3ccc(NS(=O)(=O)C4CCCCC4)cc3F)n2)CC1` [Compound 68, N-[4-[[3-[2-[(1r,4r)(4-Aminocyclohexyl)amino]pyrimidin-4-yl]-4-pyridyl]oxy]-3-fluorophenyl] cyclohexylsulfonamide], the Kd was in the range of 100 to 1000 nM.

For the compound `N[C@H]1CC[C@H](Nc2nccc(-c3cnccc3Oc3ccc(NS(=O)(=O)c4cccc5cccnc45)cc3F)n2)CC1` [Compound 42, N-[4-[[3-[2-[(1r,4r)(4-aminocyclohexyl)amino]pyrimidin-4-yl]-4-pyridyl]oxy]-3-fluorophenyl]quinoline-8-sulfonamide], the Kd lay in the range of 100 to 1000 nM.

Consider `O=S(=O)(Nc1ccc(Sc2ncccc2-c2ccnc(N[C@H]3CCCNC3)n2)c(F)c1)c1cccc2ccccc12` [Compound 113, N-[3-fluoro-4-[[3-[2-[[(3S)-3-piperidyl]amino]pyrimidin-4-yl]-2-pyridyl]sulfanyl]phenyl] naphthalene-1-sulfonamide], for which the Kd lay in the range of 100 to 1000 nM.

On to `COCCOCCNc1nccc(-c2cnccc2Oc2ccc(NS(=O)(=O)c3ccccc3Cl)cc2F)n1` [Compound 91], for which the Kd fell in the range of 100 to 1000 nM.

On to `CC(C)c1ccc(-c2ccnc(N[C@H]3CC[C@H](N)CC3)n2)c(Oc2ccc(NS(=O)(=O)c3ccccc3Cl)cc2F)c1` [Compound 20, N-[4-[2-[2-[(1r,4r)(4-Aminocyclohexyl)amino]pyrimidin-4-yl]-5-(1-methylethyl)phenoxy]-3-fluorophenyl] 2-chlorobenzenesulfonamide], for which the Kd fell in the range of 11 to 100 nM.

Regarding `N[C@H]1CC[C@H](Nc2nccc(-c3ccc(C4CCCCC4)cc3Oc3ccc(NS(=O)(=O)c4ccccc4Cl)cc3F)n2)CC1` [Compound 22, N-[4-[2-[2-[(1r,4r)(4-Aminocyclohexyl)amino]pyrimidin-4-yl]-5-cyclohexylphenoxy]-3-fluorophenyl] 2-chlorobenzenesulfonamide], the dissociation constant (Kd) is 11 to 100 nM.

For `O=S(=O)(Nc1ccc(Oc2ccncc2-c2ccnc(N[C@H]3CCCNC3)n2)c(F)c1)c1ccccc1` [Compound 59, N-[3-Fluoro-4-[[3-[2-[[(3S)-3-piperidyl]amino]pyrimidin-4-yl]-4-pyridyl]oxy]phenyl] benzenesulfonamide], the dissociation constant (Kd) was in the range of 11 to 100 nM.

Turning to `N[C@H]1CC[C@H](Nc2nccc(-c3cnccc3Oc3ccc(NS(=O)(=O)c4cccc5ccccc45)cc3F)n2)CC1` [Compound 69, N-[4-[[3-[2-[(1r,4r)(4-Aminocyclohexyl)amino]pyrimidin-4-yl]-4-pyridyl]oxy]-3-fluorophenyl] naphthalene-1-sulfonamide], the Kd fell in the range of 11 to 100 nM.

As for `N[C@H]1CC[C@H](Nc2nccc(-c3cnccc3Oc3cc(Cl)c(NS(=O)(=O)c4ccccc4Cl)cc3F)n2)CC1` [Compound 47, N-[4-[[3-[2-[(1r,4r)(4-Aminocyclohexyl)amino]pyrimidin-4-yl]-4-pyridyl]oxy]-2-chloro-5-fluorophenyl] 2-chlorobenzenesulfonamide], the equilibrium dissociation constant (Kd) is not above 10 nM.

In the case of `N[C@H]1CC[C@H](Nc2nccc(-c3cnccc3Oc3ccc(NS(=O)(=O)c4ccccc4Cl)cc3F)n2)CC1` [Compound 24, N-[4-[[3-[2-(1r,4r)[(4-aminocyclohexyl)amino]pyrimidin-4-yl]-4-pyridyl]oxy]-3-fluoro-phenyl]-2-chloro-benzenesulfonamide], the Kd was not above 10 nM.

As to `N[C@H]1CC[C@H](Nc2nccc(-c3ccccc3Oc3ccc(NS(=O)(=O)c4ccccc4Cl)cc3F)n2)CC1` [Compound 3, N-[4-[2-[2-[(1r,4r)(4-Aminocyclohexyl)amino]pyrimidin-4-yl]phenoxy]-3-fluorophenyl] 2-chlorobenzenesulfonamide], the Kd was 11 to 100 nM.

Turning to `CN(C)CCNc1nccc(-c2cnccc2Oc2ccc(NS(=O)(=O)c3ccccc3Cl)cc2F)n1` [Compound 85], the dissociation constant (Kd) lay in the range of 100 to 1000 nM.

As for `N[C@H]1CC[C@H](Nc2nccc(-c3cnccc3Oc3ccc(NS(=O)(=O)C4CC5CCC4C5)cc3F)n2)CC1` (stereo partly drawn) [Compound 75, N-[4-[[3-[2-(1r,4r)[(4-Aminocyclohexyl)amino]pyrimidin-4-yl]-4-pyridyl]oxy]-3-fluorophenyl] [R,S]-exo-norborn-2-ylsulfonamide], the equilibrium dissociation constant (Kd) fell in the range of 100 to 1000 nM.

Take `N#Cc1ccccc1S(=O)(=O)Nc1ccc(Oc2ccncc2-c2ccnc(N[C@H]3CC[C@H](N)CC3)n2)c(F)c1` [Compound 67, N-[4-[[3-[2-[(1r,4r)(4-Aminocyclohexyl)amino]pyrimidin-4-yl]-4-pyridyl]oxy]-3-fluorophenyl] 2-cyanobenzenesulfonamide]: the dissociation constant (Kd) is not above 10 nM.

Source of the values: patent US20260234112A1, “COMPOUNDS, COMPOSITIONS, AND METHODS OF USE THEREOF” (Type6 Therapeutics, Inc., priority 2023, published 2026).
